Where “and” joins values, the source holds several entries; their conditions need not be identical. Identical values can stand only once. Entries after “also recorded” stand apart in the source; their conditions may differ. Like-named read-outs stand apart in the source and are kept apart here.
What was measured:
[1] = system: APP/PS1 mice; assay: Radial-arm water maze (spatial working memory); assay type: in vivo, mouse; conditions: for minimum time needed for a positive effect on spatial working memory: 3 mg/kg
Excerpt: Next, the effect of treatment with sildenafil was examined on spatial working memory, a type of short-term memory that can be studied with the radial-arm water maze test. […] Mice were required to learn and memorize the location of a hidden platform in one of the arms of a maze with respect to spatial cues. […] However, daily injections of sildenafil for 3 weeks immediately after the 4th acquisition trial ameliorated the behavioural performance of APP/PS1 mice (FIG. 2B).
The effects of one course of 3-week treatment with sildenafil on spatial working memory were next tested using the radial-arm water-maze task. There was a difference between the number of errors made by vehicle-treated APP/PS1 and WT mice (FIG. 3B)^A12. Administration of sildenafil for 3 weeks, 9-12 weeks prior to the testing, reduced the gap between the two groups without affecting performance of the WT animals (FIG. 3B).
Three-month-old APP/PS1 and WT mice were separated into 4 groups: APP/PS1 mice treated with vehicle, APP/PS1 mice treated with PDE inhibitor, WT mice treated with vehicle, and WT mice treated with PDE inhibitor. […] In the remaining experiments, sildenafil was injected via i.p. The drug was administered either acutely or for 1 course of 3 week treatment. For assessment of the short-term effects of sildenafil, the drug was given at a concentration of 3 mg/kg immediately after the training. This dose yields concentrations of ˜2.5 μM cGMP in the hippocampus^A53. For assessment of long-term effects, sildenafil was given daily by i.p. injection at a concentration of 3 mg/kg for 3 weeks and then treatment was stopped for 9-12 weeks prior to behavioral testing. Contextual and cued fear conditioning was performed for 3 days. Radial-arm water-maze (RAWM) was performed for 3 weeks. Then, the animals were sacrificed for electrophysiological recordings. To decide the time of administration of sildenafil in the acute experiments, a series of studies was performed in which the inhibitor was injected i.p. at 5 min before the electric shock or at 5 min before the first acquisition trial with the radial arm water maze. […] Thus, all the behavioral experiments on the acute effects of sildenafil reported in the result section were performed with injection after the training.
This is a type of short-term memory that can be studied with the RAWM test^12. Briefly, the RAWM consisted of a white tank (120 cm diameter) filled with water (24-25° C.) and made opaque by the addition of non-toxic white paint. Within the tank walls were positioned so as to produce six arms, radiating from a central area. Spatial cues were presented on the walls of the testing room. At the end of one of the arms was positioned a clear 10 cm submerged (1.5 cm) platform that remained in the same location for every trial in one day, but was moved about randomly from day to day. On each trial the mouse started the task from a different randomly chosen arm. […] Each trial lasted 1 min and errors were counted each time the mouse entered the wrong arm or needed more than 20 sec to reach the platform. After each error the mouse was pulled back to the start arm for that trial. After 4 consecutive acquisition trials, the mouse was placed in its home cage for 30 min, then returned to the maze and administered a 5th retention trial. Testing was considered completed as the WT mice made the same number of errors at the 4th and 5th trial. The scores for each mouse on the last three days of testing were averaged and used for statistical analysis.

[2] = target: PDE5A1 (Homo sapiens, UniProt O76074); assay: PDE assay for compound screening (IMAP TR-FRET kit, FAM-cGMP, fluorescence polarization); assay type: biochemical; conditions: 100 nM cGMP substrate; read-out: IC50 for PDE5
Procedure: Protocol of PDE Assay for Compound Screening
Materials: IMAPTM TR-FRET Screening Express with Progressive Binding Kit from Molecular Devices (R8160); FAM-Cyclic-3′,5′-GMP from Molecular Devices (R7507); PDE5 inhibitors.
Step 1: A dilution series of the inhibitors ranging from 300 pM to 10 μM in 1× PDE Assay Buffer are made. Subsequently, FAM-cGMP is diluted to 200 nM in 1×PDE Assay Buffer. PDE5A1 enzymes are then diluted to 0.125 ng/μl in 1×PDE Assay Buffer.
Step 2: The following components are added to a low binding black plate: a) […] of 200 nM FAM-cGMP (Final concentration will be 100 nM); b) 5 μl of the compounds (Final concentration=30 pM to 1 μM); c) 20 μl of PDE5A1 (0.125 ng/l) (Final amount=2.5 ng/reaction). The components are mixed and incubated at room temp. for 1 hour.
Step 3: A 1× reagent-binding buffer (75% 1× Binding Buffer A and 25% 1× Binding Buffer B) is then prepared followed by a Binding Solution that is prepared by diluting Binding Reagent with 1× reagent-binding Buffer (1:600). 120 μl of Binding Solution is then added to each well and the plate is incubated at room temperature for 1 hour.
Step 4: Fluorescence polarization is measured at excitation of 485 nm and emission of 520 nm in BioTek Synergy™ 2 microplate reader.

[3] = system: isolated rabbit corpus cavernosum; conditions: read-out: EC50, relaxant effect; cited from earlier work
[4] = in vivo, cited from earlier work
[5] = system: cGMP; conditions: sildenafil 3 mg/kg; cited from earlier work
[6] = treated at 3 months, tested at 6-8 months
[7] = 3 month-old APP/PS1, 3 mg/Kg i.p.
[8] = APP/PS1, 3 mg/Kg i.p. for 3 weeks at 3 months, tested 9-12 weeks later
[9] = WT, 3 mg/Kg i.p. for 3 weeks at 3 months, tested 9-12 weeks later

COc1ccc(CNc2c(CO)cnc3c(C4CC4)cc(C#N)cc23)cc1Cl [YF012403, 4-(3-chloro-4-methoxybenzylamino)-8-cyclopropyl-3-(hydroxymethyl)-quinoline-6-carbonitrile]
effect on spatial working memory (RAWM) in words ([1]; APP/PS1 (transgenic) mice): attenuated
IC50 [2]: 1.2 nM and 0.27 nM

CCCc1nn(C)c2c(=O)[nH]c(-c3cc(S(=O)(=O)N4CCN(C)CC4)ccc3OCC)nc12 [sildenafil, 5-[2-ethoxy-5-(4-methyl-1-piperazinylsulphonyl)phenyl]-1-methyl-3-n-propyl-1,6-dihydro-7H-pyrazolo[4,3-d]pyrimidin-7-one]
EC50 [3]: 8.7 nM
ability to cross the BBB in words [4]: reported to cross the blood brain barrier; also recorded: reported to cross the BBB
ability to cross the BBB in words ([4]; listed as Sildenafil): reported to cross the BBB
minimum time needed for a positive effect on spatial working memory [1, 6]: 2 weeks
minimum time needed for a positive effect on spatial working memory ([1]; 3-month-old APP/PS1): 2 weeks
minimum concentration needed to improve spatial working memory ([1]; 3-month-old APP/PS1, for 3 weeks): 3 mg/kg
RAWM errors, recall trial R [1, 7]: 3.57±0.31 errors
RAWM errors, trial A1 [1, 7]: 5.87±0.22 errors
RAWM errors, trial A4 [1, 7]: 3.39±0.39 errors
RAWM errors, recall trial R ([1]; 3 month-old WT, 3 mg/Kg i.p.): 1.9±0.35 errors
RAWM errors, trial A1 ([1]; 3 month-old WT, 3 mg/Kg i.p.): 5.5±0.23 errors
RAWM errors, trial A4 ([1]; 3 month-old WT, 3 mg/Kg i.p.): 1.5±0.21 errors
RAWM errors, recall trial R [1, 8]: 3±0.75 errors
RAWM errors, trial A1 [1, 8]: 6.16±0.39 errors
RAWM errors, trial A2 [1, 8]: 4.16±0.53 errors
RAWM errors, trial A3 [1, 8]: 3.5±0.41 errors
RAWM errors, trial A4 [1, 8]: 2.83±0.61 errors
RAWM errors in the retention trial ([1]; APP/PS1, injected i.p. 5 min before the first acquisition trial): ~5 errors
RAWM errors, recall trial R [1, 9]: 2.33±0.36 errors
RAWM errors, trial A1 [1, 9]: 6±0.29 errors
RAWM errors, trial A2 [1, 9]: 3.22±0.56 errors
RAWM errors, trial A3 [1, 9]: 2.5±0.36 errors
RAWM errors, trial A4 [1, 9]: 1.83±0.16 errors
minimum concentration needed to improve spatial working memory [1, 6]: 3 mg/kg
cGMP concentration in the hippocampus [5]: ~2.5 µM
